inhibition, IC50 and Kd data for 26 molecules are collected here from patent US20100256357A1, “HETEROCYCLES USEFUL AS INHIBITORS OF CARBONIC ANHYDRASE” (Agouron Pharmaceuticals, Inc., priority 2006, published 2010).

The structures appear in SMILES notation. Where two headings read alike, the source gives them in different places.

One assay has as its target T1, human CA-IV (Homo sapiens, UniProt P22748).
T1 construct: made in house; host or cells: Escherichia coli BL21(DE3)
Kind of assay: Carbonic Anhydrase-IV (CA-IV) Fluorescence Polarization Assay-IC50 Determination. It counts as binding. As to conditions: for inhibition at 0.2 µM: read-out: CA-IV: % Inh @ Min dose; for IC50: read-out: CA-IV IC50. In outline: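 Recombinant CA-IV expressed with 800 uM ZnCl2, purified by SP-Sepharose and Sephacryl S-100 in 25 mM Tris-HCl pH 7.0, 100 mM NaCl, concentrated to 7.0 mg/mL. IC50 by fluorescence polarization.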
(In general: Polarisation of emitted light reports the rotation of a fluorescent probe.)

The target in assay [1] is T2, human CA-II (Homo sapiens, UniProt P00918).
T2 construct: purchased Sigma-Aldrich C6165
Kind of assay: Carbonic Anhydrase-II (CA-II) Fluorimetric Assay-IC50 Determination. The class given is biochemical. As to conditions: read-out: CAII % Inh @ Min dose; for inhibition at 0.1 µM: CA II Min dose 100 nM; for inhibition at 0.0025 µM: Min dose 2.5 nM. In outline: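 Compounds were tested as an 11-point, 1:3 dilution series in duplicate, with a top final concentration of 1 μM, in 50 mM Tris/HCl pH 7.6, 100 mM Na2SO4 and 0.005% Tween-20. Human CA-II activity was followed as the rate of fluorescein diacetate hydrolysis at 25° C, with excitation at 488 nm and emission at 538 nm.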

Assay [2] addresses T2, human CA-II. Put plainly: Carbonic Anhydrase-II (CA-II) Fluorescence Polarization Tight Binding Assay-Kd Determination. As to conditions: for Kd: read-out: CA-II Kd; for inhibition at 0.0025 µM: inhibitor concentration 2.5 nM. Here is the method: Assays were conducted in a final volume of 100 μL in 50 mM Tris/HCl (pH 7.6), 100 mM Na2SO4 and 0.005% Tween-20 in a 96-well black assay plate. […] The assay plate was
The Kd binding was calculated using GraphPad Prism and Morrison tight binding ligand equation.

T1 sequence (P22748 19-284 limits assumed): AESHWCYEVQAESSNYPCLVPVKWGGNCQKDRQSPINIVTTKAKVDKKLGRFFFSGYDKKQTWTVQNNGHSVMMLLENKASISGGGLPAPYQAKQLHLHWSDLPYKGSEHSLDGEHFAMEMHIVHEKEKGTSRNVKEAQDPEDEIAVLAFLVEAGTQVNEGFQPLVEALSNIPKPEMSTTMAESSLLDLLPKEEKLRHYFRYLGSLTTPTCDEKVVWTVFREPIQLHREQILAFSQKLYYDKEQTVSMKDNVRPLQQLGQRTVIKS

On to `N#CCCN(C(=O)c1nc(Cc2ccccc2)n(-c2ccc(S(N)(=O)=O)cc2)n1)C1CC1` [Example R-13, 1-[4-(aminosulfonyl)phenyl]-5-benzyl-N-(2-cyanoethyl)-N-cyclopropyl-1H-124-triazole-3-carboxamide], for which, on human CA-IV (CA-IV Min dose 200 nM), the inhibition at 0.2 µM turned out to be 63.6%. Further, the IC50 at human CA-IV is 208 nM. At human CA-II [1], the inhibition at 0.1 µM stood at 100%. Further, the Kd on human CA-II [2] turned out to be 0.644 nM.
As to `Cc1ccccc1Cn1cc(C(F)(F)F)nc1-c1ccc(S(N)(=O)=O)cc1` [JJJ-3, 4-[1-(2-methylbenzyl)-4-(trifluoromethyl)-1H-imidazol-2-yl]benzenesulfonamide], the inhibition at 0.2 µM at human CA-IV (Min dose 200 nM) was found to be 36%. Also, at human CA-IV, the IC50 came out at 346 nM. In addition, at human CA-II [1], the inhibition at 0.0025 µM came to 47%. The Kd at human CA-II [2] is 0.369 nM.
Regarding `CN(CC1CC1)C(=O)c1nc(Cc2ccccc2)n(-c2ccc(S(N)(=O)=O)cc2)n1` [Example R-20, 1-[4-(aminosulfonyl)phenyl]-5-benzyl-N-(cyclopropylmethyl)-N-methyl-1H-124-triazole-3-carboxamide], the inhibition at 0.2 µM on human CA-IV (CA-IV Min dose 200 nM) came out at 65.2%. For the same molecule, the IC50 on human CA-IV is 355 nM. On human CA-II [1], the inhibition at 0.1 µM was determined as 100%. On human CA-II [2], the Kd was found to be 0.805 nM.
Taken in the same sequence, the figures for `COc1cccc(CNC(=O)c2nc(Cc3ccccc3)n(-c3ccc(S(N)(=O)=O)cc3)n2)c1` [Example R-22, 1-[4-(aminosulfonyl)phenyl]-5-benzyl-N-(3-methoxybenzyl)-1H-124-triazole-3-carboxamide] were 53.6%, 361 nM, 100% and 0.091 nM.
For `NS(=O)(=O)c1ccc(-n2nc(C(=O)N(CCO)Cc3ccccc3)nc2Cc2ccccc2)cc1` [Example R-2, 1-[4-(aminosulfonyl)phenyl]-N5-dibenzyl-N-(2-hydroxyethyl)-1H-124-triazole-3-carboxamide], the inhibition at 0.2 µM at human CA-IV (CA-IV Min dose 200 nM) turned out to be 57.7%. The IC50 at human CA-IV was found to be 87 nM. For the same molecule, at human CA-II [1] (CA II Min dose 10 nM), the inhibition at 0.01 µM stood at 87%. In addition, the Kd at human CA-II [2] came to 0.621 nM.
Take `NS(=O)(=O)c1ccc(-n2nc(C(=O)NCC3CCCCC3)nc2Cc2ccccc2)cc1` [Example R-17, 1-[4-(aminosulfonyl)phenyl]-5-benzyl-N-(cyclohexylmethyl)-1H-124-triazole-3-carboxamide]: on human CA-IV (CA-IV Min dose 200 nM), the inhibition at 0.2 µM stood at 56.9%. In addition, the IC50 at human CA-IV was 242 nM. Moreover, the inhibition at 0.1 µM at human CA-II [1] was determined as 101%. Also, the Kd at human CA-II [2] came out at 0.067 nM.
Taken in the same sequence, the figures for `CCCCN(C)C(=O)c1nc(Cc2ccccc2)n(-c2ccc(S(N)(=O)=O)cc2)n1` [Example R-3, 1-[4-(aminosulfonyl)phenyl]-5-benzyl-N-butyl-N-methyl-1H-124-triazole-3-carboxamide] were 66.4%, 88 nM, 101% and 0.451 nM.
For `NS(=O)(=O)c1ccc(-n2nc(C(=O)NCc3n[nH]c4c3CCC4)nc2Cc2ccccc2)cc1` [Example R-11, 1-[4-(aminosulfonyl)phenyl]-5-benzyl-N-(1456-tetrahydrocyclopenta[c]pyrazol-3-ylmethyl)-1H-124-triazole-3-carboxamide], the inhibition at 0.2 µM at human CA-IV (CA-IV Min dose 200 nM) was 64.7%. On human CA-IV, the IC50 came to 202 nM. The inhibition at 0.1 µM on human CA-II [1] came to 99%. Further, the Kd on human CA-II [2] was found to be 0.091 nM.
Turning to `NS(=O)(=O)c1ccc(-c2nc(C(F)(F)F)cn2Cc2cccc(OC(F)F)c2)cc1` [JJJ-4, 4-{1-[3-(difluoromethoxy)benzyl]-4-(trifluoromethyl)-1H-imidazol-2-yl]benzenesulfonamide], the inhibition at 0.2 µM at human CA-IV (Min dose 200 nM) stood at 29%. Also, the IC50 on human CA-IV came out at 440 nM. The inhibition at 0.0025 µM at human CA-II [1] is 39%. Moreover, the Kd at human CA-II [2] came out at 1.39 nM.
For `NS(=O)(=O)c1ccc(-n2nc(CNCC3(c4ccccc4)CC3)nc2Cc2ccccc2)c(F)c1` [Example T-45, 4-[5-benzyl-3-({[(1-phenylcyclopropyl)methyl]amino}methyl)-1H-124-triazol-1-yl]-3-fluorobenzenesulfonamide], on human CA-II [2], the inhibition at 0.0025 µM was determined as 53%.
Still for that read-out and setting: the result for `CCOc1ccccc1CNCc1nc(Cc2ccccc2)n(-c2ccc(S(N)(=O)=O)cc2F)n1` [Example T-63, 4-(5-benzyl-3-{[(2-ethoxybenzyl)amino]methyl}-1H-124-triazol-1-yl)-3-fluorobenzenesulfonamide] reads 41%.
Still for that read-out and setting: under `COC[C@H](C)NCc1nc(Cc2ccccc2)n(-c2ccc(S(N)(=O)=O)cc2F)n1` [Example T-80, 4-[5-benzyl-3-({[(1S)-2-methoxy-1-methylethyl]amino}methyl)-1H-124-triazol-1-yl]-3-fluorobenzenesulfonamide] stands 73%; under `NS(=O)(=O)c1ccc(-n2nc(CN[C@@H]3C[C@H]4CC[C@@H]3C4)nc2Cc2ccccc2)c(F)c1` [Example T-67], 47%; under `NS(=O)(=O)c1ccc(-n2nc(CNCCOc3ccccc3)nc2Cc2ccccc2)c(F)c1` [Example T-64, 4-(5-benzyl-3-{[(2-phenoxyethyl)amino]methyl}-1H-124-triazol-1-yl)-3-fluorobenzenesulfonamide], 47%.
On the same count and under the same terms, under `NS(=O)(=O)c1ccc(-n2nc(CNCCc3ccccc3F)nc2Cc2ccccc2)c(F)c1` [Example T-58, 4-[5-benzyl-3-({[2-(2-fluorophenyl)ethyl]amino}methyl)-1H-124-triazol-1-yl]-3-fluorobenzenesulfonamide] stands 51%.
Turning to `CC(C)OCCNCc1nc(Cc2ccccc2)n(-c2ccc(S(N)(=O)=O)cc2F)n1` [Example T-79, 4-(5-benzyl-3-{[(2-isopropoxyethyl)amino]methyl}-1H-124-triazol-1-yl)-3-fluorobenzenesulfonamide], the inhibition at 0.0025 µM at human CA-II [2] came out at 44%.
The same measure, in the same setting: under `COC1COCCN(Cc2nc(Cc3ccccc3)n(-c3ccc(S(N)(=O)=O)cc3F)n2)C1` (centres unmarked) [Example T-40, 4-{5-benzyl-3-[(6-methoxy-14-oxazepan-4-yl)methyl]-1H-124-triazol-1-yl}-3-fluorobenzenesulfonamide] stands 49%; under `CC(Cn1cccn1)NCc1nc(Cc2ccccc2)n(-c2ccc(S(N)(=O)=O)cc2F)n1` (centres unmarked) [Example T-72, 4-[5-benzyl-3-({[1-methyl-2-(1H-pyrazol-1-yl)ethyl]amino}methyl)-1H-124-triazol-1-yl]-3-fluorobenzenesulfonamide], 70%.
On the same count and under the same terms, under `C[C@@H](NCc1nc(Cc2ccccc2)n(-c2ccc(S(N)(=O)=O)cc2F)n1)[C@@H](O)c1ccccc1` [Example T-43, 4-[5-benzyl-3-({[(1R2S)-2-hydroxy-1-methyl-2-phenylethyl]amino}methyl)-1H-124-triazol-1-yl]-3-fluorobenzenesulfonamide] stands 41%.
On the same count and under the same terms, under `NS(=O)(=O)c1ccc(-n2nc(CNC3CCCCC3)nc2Cc2ccccc2)c(F)c1` [Example T-69, 4-{5-benzyl-3-[(cyclohexylamino)methyl]-1H-124-triazol-1-yl}-3-fluorobenzenesulfonamide] stands 68%.
On to `NS(=O)(=O)c1ccc(-n2nc(CNC[C@@H](O)c3ccccc3)nc2Cc2ccccc2)c(F)c1` [Example T-46, 4-[5-benzyl-3-({[(2S)-2-hydroxy-2-phenylethyl]amino}methyl)-1H-124-triazol-1-yl]-3-fluorobenzenesulfonamide], for which the inhibition at 0.0025 µM on human CA-II [2] worked out at 57%.
Still for that read-out and setting: under `NS(=O)(=O)c1ccc(-n2nc(CNCCc3ccccc3)nc2Cc2ccccc2)c(F)c1` [Example T-61, 4-(5-benzyl-3-{[(2-phenylethyl)amino]methyl}-1H-124-triazol-1-yl)-3-fluorobenzenesulfonamide] stands 40%; under `NS(=O)(=O)c1ccc(-n2nc(CNCc3ccccc3F)nc2Cc2ccccc2)c(F)c1` [Example T-74, 4-(5-benzyl-3-{[(2-fluorobenzyl)amino]methyl}-1H-124-triazol-1-yl)-3-fluorobenzenesulfonamide], 45%.
The same measure, in the same setting: under `NS(=O)(=O)c1ccc(-n2nc(CNCc3ccc(F)cc3)nc2Cc2ccccc2)c(F)c1` [Example T-56, 4-(5-benzyl-3-{[(4-fluorobenzyl)amino]methyl}-1H-124-triazol-1-yl)-3-fluorobenzenesulfonamide] stands 50%.
The same measure, in the same setting: the result for `NS(=O)(=O)c1ccc(-n2nc(CNCc3cc(F)ccc3F)nc2Cc2ccccc2)c(F)c1` [Example T-60, 4-(5-benzyl-3-{[(25-difluorobenzyl)amino]methyl}-1H-124-triazol-1-yl)-3-fluorobenzenesulfonamide] reads 57%; that for `NS(=O)(=O)c1ccc(-n2nc(CNC3Cc4ccccc4C3)nc2Cc2ccccc2)c(F)c1` [Example T-76, 4-{5-benzyl-3-[(23-dihydro-1H-inden-2-ylamino)methyl]-1H-124-triazol-1-yl}-3-fluorobenzenesulfonamide], 41%.

As a reminder, the IC50 is the point on the concentration scale where inhibition reaches its midpoint. As usually defined, the Kd is the free concentration of one partner at which half of the binding sites on the other are occupied at equilibrium, for simple one-to-one binding.
